In US20250382305A1 (PTC THERAPEUTICS, INC., priority 2022, published 2025):

What was measured:
[1] = tested on: Total ATXN3 (tATXN3) protein; experiment: Endogenous Total ATXN3 (tATXN3) Protein Assay (MSD immunoassay of cell lysates); type: cell-based; conditions: average IC50, total ATXN3 protein in cell lysate after 48 h with compound (Table 1)
Summary of the method: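 By electrochemiluminescent MSD sandwich immunoassay (mouse monoclonal capture, rabbit monoclonal and SULFO-TAG anti-rabbit detection), endogenous ATXN3 was quantified in lysates of cells treated 48 h at 37° C at 10,000 cells/well. Treatment used a 7-point 3.16-fold duplicate dilution series, with average IC50 grouped into star categories.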

ATXN3 pre-mRNA = experiment: RT-qPCR Assay to Quantify Exon 4 Skipping in ATXN3 pre-mRNA in Cells; type: cell-based; conditions: percent exon 4 skipping in ATXN3 pre-mRNA, RT-qPCR of cell lysates; average IC50
Summary of the method: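 IC50 derives from a dose-response fit of percent exon 4 skipping, quantified by RT-qPCR on crude lysates. Compounds tested as 7-point 3.16-fold dilutions in duplicate; cells (10,000/well) were exposed for 24 h at 37 °C before lysis.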

IC50 [1] | IC50 (ATXN3 pre-mRNA) | Compound
> 1 µM | > 1 µM | N[C@H]1CCCCC[C@H]1c1cc2nc(Cl)cc(NCc3cccs3)c2s1 [Compound 89, 2-((1R,2S)-2-aminocycloheptyl)-5-chloro-N-(thiophen-2-ylmethyl)thieno[3,2-b]pyridin-7-amine]
0.3 to 1 µM | 0.3 to 1 µM | N[C@H]1CCCCC[C@@H]1c1cc2nc(Cl)cc(NCc3cccs3)c2s1 [Compound 90, 2-((1S,2S)-2-aminocycloheptyl)-5-chloro-N-(thiophen-2-ylmethyl)thieno[3,2-b]pyridin-7-amine]
> 1 µM | > 1 µM | N[C@H]1CCCCCC[C@H]1c1sc2c(NCc3cccs3)cc(Cl)nc2c1Cl [Compound 91, 2-((1R,2S)-2-aminocyclooctyl)-3,5-dichloro-N-(thiophen-2-ylmethyl)thieno[3,2-b]pyridin-7-amine]
> 1 µM | > 1 µM | Cc1c([C@@H]2CCCCCC[C@H]2N)sc2c(NCc3cccs3)cc(Cl)nc12 [Compound 92, 2-((1R,2R)-2-aminocyclooctyl)-5-chloro-3-methyl-N-(thiophen-2-ylmethyl)thieno[3,2-b]pyridin-7-amine]
> 1 µM | > 1 µM | Cc1c([C@H]2CCCCCC[C@H]2N)sc2c(NCc3cccs3)cc(Cl)nc12 [Compound 93, 2-((1S,2R)-2-aminocyclooctyl)-5-chloro-3-methyl-N-(thiophen-2-ylmethyl)thieno[3,2-b]pyridin-7-amine]
0.3 to 1 µM | 0.03 to 0.3 µM | Cc1c([C@H]2CCCCCC[C@@H]2N)sc2c(NCc3cccs3)cc(Cl)nc12 [Compound 94, 2-((1S,2S)-2-aminocyclooctyl)-5-chloro-3-methyl-N-(thiophen-2-ylmethyl)thieno[3,2-b]pyridin-7-amine]
> 1 µM | > 1 µM | Cc1c([C@@H]2CCCCCC[C@@H]2N)sc2c(NCc3cccs3)cc(Cl)nc12 [Compound 95, 2-((1R,2S)-2-aminocyclooctyl)-5-chloro-3-methyl-N-(thiophen-2-ylmethyl)thieno[3,2-b]pyridin-7-amine]
0.03 to 0.3 µM | 0.03 to 0.3 µM | N[C@H]1CCCCCC[C@@H]1c1sc2c(NCc3cccs3)cc(Cl)nc2c1Cl [Compound 96, 2-((1S,2S)-2-aminocyclooctyl)-3,5-dichloro-N-(thiophen-2-ylmethyl)thieno[3,2-b]pyridin-7-amine]
> 1 µM | > 1 µM | N[C@@H]1CCCCCC[C@H]1c1sc2c(NCc3cccs3)cc(Cl)nc2c1Cl [Compound 97, 2-((1R,2R)-2-aminocyclooctyl)-3,5-dichloro-N-(thiophen-2-ylmethyl)thieno[3,2-b]pyridin-7-amine]
> 1 µM | > 1 µM | N[C@@H]1CCCCCC[C@@H]1c1sc2c(NCc3cccs3)cc(Cl)nc2c1Cl [Compound 98, 2-((1S,2R)-2-aminocyclooctyl)-3,5-dichloro-N-(thiophen-2-ylmethyl)thieno[3,2-b]pyridin-7-amine]
0.03 to 0.3 µM | 0.03 to 0.3 µM | N[C@H]1CCCCCC[C@@H]1c1sc2c(NCc3cccs3)cc(Cl)nc2c1Br [Compound 99, 2-((1S,2S)-2-aminocyclooctyl)-3-bromo-5-chloro-N-(thiophen-2-ylmethyl)thieno[3,2-b]pyridin-7-amine]
> 1 µM | > 1 µM | N[C@@H]1CCCCCC[C@H]1c1sc2c(NCc3cccs3)cc(Cl)nc2c1Br [Compound 100, 2-((1R,2R)-2-aminocyclooctyl)-3-bromo-5-chloro-N-(thiophen-2-ylmethyl)thieno[3,2-b]pyridin-7-amine]
> 1 µM | > 1 µM | N[C@@H]1CCCCCC[C@@H]1c1sc2c(NCc3cccs3)cc(Cl)nc2c1Br [Compound 101, 2-((1S,2R)-2-aminocyclooctyl)-3-bromo-5-chloro-N-(thiophen-2-ylmethyl)thieno[3,2-b]pyridin-7-amine]
> 1 µM | > 1 µM | N[C@H]1CCCCCC[C@H]1c1sc2c(NCc3cccs3)cc(Cl)nc2c1Br [Compound 102, 2-((1R,2S)-2-aminocyclooctyl)-3-bromo-5-chloro-N-(thiophen-2-ylmethyl)thieno[3,2-b]pyridin-7-amine]
> 1 µM | > 1 µM | N[C@H]1CCCCCC[C@@H]1c1cc2nc(Cl)cc(NCc3cccs3)c2s1 [Compound 103, 2-((1S,2S)-2-aminocyclooctyl)-5-chloro-N-(thiophen-2-ylmethyl)thieno[3,2-b]pyridin-7-amine]
> 1 µM | > 1 µM | N[C@H]1CCCCCC[C@H]1c1cc2nc(Cl)cc(NCc3cccs3)c2s1 [Compound 104, 2-((1R,2S)-2-aminocyclooctyl)-5-chloro-N-(thiophen-2-ylmethyl)thieno[3,2-b]pyridin-7-amine]
> 1 µM | > 1 µM | N[C@@H]1CCCCCC[C@H]1c1cc2nc(Cl)cc(NCc3cccs3)c2s1 [Compound 105, 2-((1R,2R)-2-aminocyclooctyl)-5-chloro-N-(thiophen-2-ylmethyl)thieno[3,2-b]pyridin-7-amine]

IC50 [1] | IC50 (ATXN3 pre-mRNA) | Compound
> 1 µM | > 1 µM | N[C@@H]1CCCCCC[C@@H]1c1cc2nc(Cl)cc(NCc3cccs3)c2s1 [Compound 106, 2-((1S,2R)-2-aminocyclooctyl)-5-chloro-N-(thiophen-2-ylmethyl)thieno[3,2-b]pyridin-7-amine]
0.3 to 1 µM | 0.3 to 1 µM | Cc1c([C@H]2CCC[C@@H]2N)sc2c(NCc3ccccc3)cc(Cl)nc12 [Compound 107, 2-((1S,2S)-2-aminocyclopentyl)-N-benzyl-5-chloro-3-methylthieno[3,2-b]pyridin-7-amine]
≤ 0.03 µM | ≤ 0.03 µM | N[C@H]1CCCO[C@@H]1c1sc2c(NCc3ccccc3)cc(Cl)nc2c1Br [Compound 108, 2-((2S,3S)-3-aminotetrahydro-2H-pyran-2-yl)-N-benzyl-3-bromo-5-chlorothieno[3,2-b]pyridin-7-amine]
0.03 to 0.3 µM | 0.03 to 0.3 µM | Cc1c([C@@H]2OCCC[C@H]2N)sc2c(NCc3ccccc3)cc(Cl)nc12 [Compound 109, 2-((2R,3R)-3-aminotetrahydro-2H-pyran-2-yl)-N-benzyl-5-chloro-3-methylthieno[3,2-b]pyridin-7-amine]
0.03 to 0.3 µM | ≤ 0.03 µM | N[C@H]1CCCO[C@@H]1c1sc2c(NCc3ccccc3)cc(Cl)nc2c1Cl [Compound 110, 2-((2S,3S)-3-aminotetrahydro-2H-pyran-2-yl)-N-benzyl-3,5-dichlorothieno[3,2-b]pyridin-7-amine]
> 1 µM | 0.3 to 1 µM | N[C@H]1CCC[C@H]1c1cc2nc(Cl)cc(NCc3cccs3)c2s1 [Compound 111, 2-((1R,2S)-2-aminocyclopentyl)-5-chloro-N-(thiophen-2-ylmethyl)thieno[3,2-b]pyridin-7-amine]
> 1 µM | > 1 µM | N[C@@H]1CCC[C@H]1c1cc2nc(Cl)cc(NCc3cccs3)c2s1 [Compound 112, 2-((1R,2R)-2-aminocyclopentyl)-5-chloro-N-(thiophen-2-ylmethyl)thieno[3,2-b]pyridin-7-amine]
> 1 µM | > 1 µM | N[C@@H]1CCCO[C@H]1c1sc2c(NCc3ccccc3)cc(Cl)nc2c1Br [Compound 113, 2-((2R,3R)-3-aminotetrahydro-2H-pyran-2-yl)-N-benzyl-3-bromo-5-chlorothieno[3,2-b]pyridin-7-amine]
> 1 µM | > 1 µM | N[C@@H]1CCC[C@H]1c1sc2c(NCc3ccco3)cc(Cl)nc2c1Cl [Compound 114, 2-((1R,2R)-2-aminocyclopentyl)-3,5-dichloro-N-(furan-2-ylmethyl)thieno[3,2-b]pyridin-7-amine]
≤ 0.03 µM | ≤ 0.03 µM | N[C@H]1CCCO[C@@H]1c1sc2c(NCc3ccco3)cc(Cl)nc2c1Br [Compound 115, 2-((2S,3S)-3-aminotetrahydro-2H-pyran-2-yl)-3-bromo-5-chloro-N-(furan-2-ylmethyl)thieno[3,2-b]pyridin-7-amine]
≤ 0.03 µM | ≤ 0.03 µM | N[C@H]1CCCO[C@@H]1c1sc2c(NCc3ccco3)cc(Cl)nc2c1Cl [Compound 116, 2-((2S,3S)-3-aminotetrahydro-2H-pyran-2-yl)-3,5-dichloro-N-(furan-2-ylmethyl)thieno[3,2-b]pyridin-7-amine]
≤ 0.03 µM | ≤ 0.03 µM | N[C@H]1CCC[C@@H]1c1sc2c(NCc3ccco3)cc(Cl)nc2c1Cl [Compound 117, 2-((1S,2S)-2-aminocyclopentyl)-3,5-dichloro-N-(furan-2-ylmethyl)thieno[3,2-b]pyridin-7-amine]
0.3 to 1 µM | 0.3 to 1 µM | N[C@@H]1CCCO[C@H]1c1sc2c(NCc3ccco3)cc(Cl)nc2c1Br [Compound 118, 2-((2R,3R)-3-aminotetrahydro-2H-pyran-2-yl)-3-bromo-5-chloro-N-(furan-2-ylmethyl)thieno[3,2-b]pyridin-7-amine]
> 1 µM | > 1 µM | N[C@@H]1CCCO[C@H]1c1sc2c(NCc3ccco3)cc(Cl)nc2c1Cl [Compound 119, 2-((2R,3R)-3-aminotetrahydro-2H-pyran-2-yl)-3,5-dichloro-N-(furan-2-ylmethyl)thieno[3,2-b]pyridin-7-amine]
0.03 to 0.3 µM | 0.03 to 0.3 µM | Cc1c([C@H]2CCC[C@@H]2N)sc2c(NCc3ccco3)cc(Cl)nc12 [Compound 120, 2-((1S,2S)-2-aminocyclopentyl)-5-chloro-N-(furan-2-ylmethyl)-3-methylthieno[3,2-b]pyridin-7-amine]
> 1 µM | > 1 µM | N[C@H]1CCC[C@]1(F)c1sc2c(NCc3ccco3)cc(Cl)nc2c1Cl [Compound 121, 2-((1R,2S)-2-amino-1-fluorocyclopentyl)-3,5-dichloro-N-(furan-2-ylmethyl)thieno[3,2-b]pyridin-7-amine]
